System: 422866-222-R5-J1-PDC complex spheroids viability
Assay: Anticancer human tumor 422866-222-R5-J1-PDC patient-derived pancreatic adenocarcinoma cell line growth inhibition [RAS]
Settings: for IC50: curve of first compound; for viability, T/C: stronger effect = lower value
Description: RAS pathway inhibitors in Combinations in Complex Spheroids
A high-throughput screen of multi-cell type tumor spheroids was designed to identify active combinations of RAS pathway inhibitors and targeted small molecules. Complex spheroids include a stromal component modeled by human endothelial cells (HUVEC) and fibroblasts modeled by human mesenchymal stem cells (MSCs). The concentration ranges selected for each drug and investigational agent were based upon clinically achievable concentrations if the clinical Cmax of the agent was known.
Compounds. The drugs and investigational agents: abemaciclib (NSC768073), cobimetinib (NSC768068), divarasib (GDC6063, NSC841802), docetaxel (NSC628503), GDC-1971 (RLY-1971, NSC841576), gemcitabine (NSC613327), inavolisib (NSC800729), ipatasertib (NSC767898), KB-0742 (NSC834161), MRTX-1133 (NSC836407), osimertinib (NSC779217), RMC-4630 (NSC839698), RMC-6236 (NSC851965), RMC-6291 (NSC852671), Ro-3306 (NSC812927), sapanisertib (NSC764658), SN-38 (NSC673596), staurosporine (NSC755774), SY5609 (NSC837396), and tovorafenib (DAY101, NSC766906), were obtained from the National Cancer Institute (NCI) Developmental Therapeutics Program Chemical Repository. The FDA-approved anticancer drug set is available from the NCI Developmental Therapeutics Program. […] The stock solutions were prepared in dimethyl sulfoxide (DMSO, Sigma-Aldrich, St. Louis, MO, cat. D2650) at 800-fold the tested concentration and stored at -70 degrees C prior to their use. All drugs and investigational agents were tested over a range starting from a high concentration at or near the clinical Cmax and decreasing in half-log increments. If the clinical Cmax for an agent had not been determined, the highest concentration tested was 10 microM.
Cell Culture. All cells were maintained in an incubator at 37 degrees C and 5% CO2 with 95% humidity. The PDC lines were cultured according to standard operating procedures established by the NCI PDMR. All PDCs were thawed and cultured in Matrigel-coated flasks prepared with a working solution of 1X Ham's F-12 nutrient mix, without supplementation (Invitrogen, Waltham, MA, cat. 11765054), 100 U/mL penicillin-streptomycin (Invitrogen, cat. 15140122), and 2.5% Matrigel (Corning Inc., Corning, NY, cat. 354248) for the first three passages. The 362531-283-R-J2-PDC and 782815-120-R-J1-PDC lines were cultured in 6C/Colon 1B media, which includes advanced DMEM/F-12 (Thermo Fisher Scientific, cat. 12634028), 10 mM HEPES (Thermo Fisher Scientific, cat. 15630080), 1X GlutaMAX supplement (Thermo Fisher Scientific, cat. 35050061), 0.1 mg/mL primocin (InvivoGen, San Diego, CA, cat. ant-pm-2), 10% defined fetal bovine serum, heat inactivated (HyClone Laboratories Inc., Logan, UT, cat. SH30070.03HI), 50% L-WRN conditioned media (ATCC, cat. CRL-3276), 1.25 mM N-Acetyl-L-cysteine (Sigma-Aldrich, cat. A9165), 10 mM nicotinamide (Sigma-Aldrich, cat. N0636), 1X B-27 supplement (Thermo Fisher Scientific, cat. 17504044), 1X N-2 supplement (Thermo Fisher Scientific, cat. 17502048), 50 ng/mL human EGF (Thermo Fisher Scientific, cat. PHG0311), and 10 microM Y-27632 dihydrochloride (Tocris Bioscience, cat. 1254). The K12877-001-R-J1-PDC line was cultured in 6I media, which includes all 6C/Colon 1B media plus 10 ng/mL human FGF-10 (PeproTech, cat. 100-26), 1 ng/mL human FGF-2 (PeproTech, cat. 100-18B), 1 µM prostaglandin E2 (Tocris Bioscience, cat. 2296), […] hydrocortisone (Sigma-Aldrich, cat. H4001), and […] bovine insulin (Sigma-Aldrich, cat. I6634). The K86415-001-R-J1-PDC line was cultured in 6D media, which includes all 6C/Colon 1B media components minus the L-WRN conditioned media. The 485176-168-R4-J1-PDC was cultured in PANC media, which includes all 6C/Colon 1B media plus 100 ng/mL human FGF-10 (PeproTech, cat. 100-26), 500 nM SB-431542 (Selleckchem, cat. S1067), and 10 nM gastrin (Tocris Bioscience, cat. 3006). […]
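Further: spheroids exposed to compounds for 7 days.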
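Wherever viability, T/C is given: 100% = DMSO vehicle control viability.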

CC1(C)CCC(Nc2ncc(C(F)(F)F)c(-c3c[nH]c4c(P(C)(C)=O)c(C#N)ccc34)n2)CN1 (configuration not stated) + C#Cc1c(F)ccc2cc(O)cc(-c3ncc4c(N5CC6CCC(C5)N6)nc(OCC56CCCN5CC(F)C6)nc4c3F)c12
IC50 (second compound 0.0316 µM): > 300 nM
IC50 (second compound 0.1 µM): 91.8 nM
IC50 (second compound 0.316 µM): 7.9 nM
IC50 (second compound 1 µM): 1.6 nM
IC50 (second compound 3.16 µM): < 0.949 nM
IC50 (second compound 10 µM): < 0.949 nM
viability, T/C (second compound 0.0316 µM, first compound 0.000949 µM): 112%
viability, T/C (second compound 0.0316 µM, first compound 0.003 µM): 83.3%
viability, T/C (second compound 0.0316 µM, first compound 0.00949 µM): 80.6%
viability, T/C (second compound 0.0316 µM, first compound 0.03 µM): 55.6%
viability, T/C (second compound 0.0316 µM, first compound 0.0949 µM): 62%
viability, T/C (second compound 0.0316 µM, first compound 0.3 µM): 56.4%
viability, T/C (second compound 0.1 µM, first compound 0.000949 µM): 100%
viability, T/C (second compound 0.1 µM, first compound 0.003 µM): 68%
viability, T/C (second compound 0.1 µM, first compound 0.00949 µM): 73.8%
viability, T/C (second compound 0.1 µM, first compound 0.03 µM): 38.2%
viability, T/C (second compound 0.1 µM, first compound 0.0949 µM): 47.5%
viability, T/C (second compound 0.1 µM, first compound 0.3 µM): 55.6%
viability, T/C (second compound 0.316 µM, first compound 0.000949 µM): 64.2%
viability, T/C (second compound 0.316 µM, first compound 0.003 µM): 66.4%
viability, T/C (second compound 0.316 µM, first compound 0.00949 µM): 45.5%
viability, T/C (second compound 0.316 µM, first compound 0.03 µM): 45.1%
viability, T/C (second compound 0.316 µM, first compound 0.0949 µM): 52.6%
viability, T/C (second compound 0.316 µM, first compound 0.3 µM): 45.3%
viability, T/C (second compound 1 µM, first compound 0.000949 µM): 54.1%
viability, T/C (second compound 1 µM, first compound 0.003 µM): 44.1%
viability, T/C (second compound 1 µM, first compound 0.00949 µM): 40.3%
viability, T/C (second compound 1 µM, first compound 0.03 µM): 42.7%
viability, T/C (second compound 1 µM, first compound 0.0949 µM): 34.5%
viability, T/C (second compound 1 µM, first compound 0.3 µM): 34.6%
viability, T/C (second compound 3.16 µM, first compound 0.000949 µM): 27%
viability, T/C (second compound 3.16 µM, first compound 0.003 µM): 37.7%
viability, T/C (second compound 3.16 µM, first compound 0.00949 µM): 28.4%
viability, T/C (second compound 3.16 µM, first compound 0.03 µM): 28.8%
viability, T/C (second compound 3.16 µM, first compound 0.0949 µM): 29.1%
viability, T/C (second compound 3.16 µM, first compound 0.3 µM): 26.9%
viability, T/C (second compound 10 µM, first compound 0.000949 µM): 24.2%
viability, T/C (second compound 10 µM, first compound 0.003 µM): 25.1%
viability, T/C (second compound 10 µM, first compound 0.00949 µM): 24.1%
viability, T/C (second compound 10 µM, first compound 0.03 µM): 27.8%
viability, T/C (second compound 10 µM, first compound 0.0949 µM): 27.9%
viability, T/C (second compound 10 µM, first compound 0.3 µM): 31.2%

Source: PubChem BioAssay AID2060901 (Molecular Pharmacology Branch, DTP, NCI, 2025)
